Source: PubChem BioAssay (NCI)
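At the GI50, growth is halved. The concentration for full growth arrest is given as TGI.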

Legend:
Assay in all cases: DTP human tumour cell line panel, 384-well format
NCI/ADR-RES ovarian = tested on: NCI/ADR-RES ovarian
T-47D breast = tested on: T-47D breast
UACC-62 melanoma = tested on: UACC-62 melanoma
SK-MEL-28 melanoma = tested on: SK-MEL-28 melanoma
SNB-75 CNS = tested on: SNB-75 CNS
ACHN renal = tested on: ACHN renal
MALME-3M melanoma = tested on: MALME-3M melanoma
SNB-19 CNS = tested on: SNB-19 CNS
PC-3 prostate = tested on: PC-3 prostate
HCC-2998 colon = tested on: HCC-2998 colon
UACC-257 melanoma = tested on: UACC-257 melanoma
SF-268 CNS = tested on: SF-268 CNS
HS 578T breast = tested on: HS 578T breast
786-0 renal = tested on: 786-0 renal
MDA-MB-231 breast = tested on: MDA-MB-231 breast
K-562 leukemia = tested on: K-562 leukemia
SF-539 CNS = tested on: SF-539 CNS
CAKI-1 renal = tested on: CAKI-1 renal
EKVX NSCLC = tested on: EKVX NSCLC
SF-295 CNS = tested on: SF-295 CNS
MOLT-4 leukemia = tested on: MOLT-4 leukemia
M14 melanoma = tested on: M14 melanoma
SW-620 colon = tested on: SW-620 colon
HOP-62 NSCLC = tested on: HOP-62 NSCLC
COLO 205 colon = tested on: COLO 205 colon
HOP-92 NSCLC = tested on: HOP-92 NSCLC
MDA-MB-468 breast = tested on: MDA-MB-468 breast
SK-OV-3 ovarian = tested on: SK-OV-3 ovarian
OVCAR-8 ovarian = tested on: OVCAR-8 ovarian
NCI-H23 lung = tested on: NCI-H23 lung
HT29 colon = tested on: HT29 colon
TK-10 renal = tested on: TK-10 renal
HCT-15 colon = tested on: HCT-15 colon
UO-31 renal = tested on: UO-31 renal
BT-549 breast = tested on: BT-549 breast
RPMI-8226 leukemia = tested on: RPMI-8226 leukemia
NCI-H460 NSCLC = tested on: NCI-H460 NSCLC
CCRF-CEM leukemia = tested on: CCRF-CEM leukemia
IGROV1 ovarian = tested on: IGROV1 ovarian
NCI-H322M lung = tested on: NCI-H322M lung
OVCAR-5 ovarian = tested on: OVCAR-5 ovarian
OVCAR-3 ovarian = tested on: OVCAR-3 ovarian
HL-60(TB) leukemia = tested on: HL-60(TB) leukemia
MDA-MB-435 melanoma = tested on: MDA-MB-435 melanoma
NCI-H226 lung = tested on: NCI-H226 lung
SR leukemia = tested on: SR leukemia
RXF 393 renal = tested on: RXF 393 renal

Q: `COCc1c(-c2cc3cc(C)cc(OC)c3s2)c2c(N)ncnn2c1CN1CCNC(=O)C1` was tested. Which GI50 (NCI/ADR-RES ovarian) did it give?
A: The GI50 was over 100 µM.

Q: What about the TGI (NCI/ADR-RES ovarian) of the same compound?
A: The TGI was over 100 µM.

Q: And the GI50 (T-47D breast)?
A: The GI50 was 15.1 µM.

Q: What about the TGI (T-47D breast) of the same compound?
A: Its TGI is over 94.7 µM.

Q: What about the GI50 (UACC-62 melanoma) of the same compound?
A: The GI50 was 6.36 µM.

Q: What about the TGI (UACC-62 melanoma) of the same compound?
A: Its TGI is 37 µM.

Q: And the GI50 (SK-MEL-28 melanoma)?
A: Its GI50 is 28.7 µM.

Q: What about the TGI (SK-MEL-28 melanoma) of the same compound?
A: Its TGI is over 100 µM.

Q: What about the GI50 (SNB-75 CNS) of the same compound?
A: Its GI50 is 1.63 µM.

Q: What about the TGI (SNB-75 CNS) of the same compound?
A: The TGI was 20.5 µM.

Q: And the GI50 (ACHN renal)?
A: The GI50 was 6.15 µM.

Q: And the TGI (ACHN renal)?
A: Its TGI is over 100 µM.

Q: And the GI50 (MALME-3M melanoma)?
A: Its GI50 is 4.55 µM.

Q: And the TGI (MALME-3M melanoma)?
A: The TGI was 32.6 µM.

Q: What about the GI50 (SNB-19 CNS) of the same compound?
A: The GI50 was 18.5 µM.

Q: And the TGI (SNB-19 CNS)?
A: Its TGI is over 100 µM.

Q: What about the GI50 (PC-3 prostate) of the same compound?
A: Its GI50 is 23.2 µM.

Q: And the TGI (PC-3 prostate)?
A: Its TGI is over 100 µM.

Q: What about the GI50 (HCC-2998 colon) of the same compound?
A: The GI50 was 19.1 µM.

Q: And the TGI (HCC-2998 colon)?
A: The TGI was over 93.1 µM.

Q: What about the GI50 (UACC-257 melanoma) of the same compound?
A: The GI50 was 29.9 µM.

Q: And the TGI (UACC-257 melanoma)?
A: The TGI was over 100 µM.

Q: And the GI50 (SF-268 CNS)?
A: The GI50 was 8.67 µM.

Q: What about the TGI (SF-268 CNS) of the same compound?
A: The TGI was over 81.6 µM.

Q: And the GI50 (HS 578T breast)?
A: The GI50 was 3.76 µM.

Q: What about the TGI (HS 578T breast) of the same compound?
A: Its TGI is 22.4 µM.

Q: What about the GI50 ([…]-0 renal) of the same compound?
A: The GI50 was 14.2 µM.

Q: What about the TGI (786-0 renal) of the same compound?
A: Its TGI is over 93.2 µM.

Q: What about the GI50 (MDA-MB-231 breast) of the same compound?
A: Its GI50 is 5.63 µM.

Q: What about the TGI (MDA-MB-231 breast) of the same compound?
A: Its TGI is over 72.1 µM.

Q: And the GI50 (K-562 leukemia)?
A: Its GI50 is 20.1 µM.

Q: And the TGI (K-562 leukemia)?
A: The TGI was over 100 µM.

Q: What about the GI50 (SF-539 CNS) of the same compound?
A: Its GI50 is 6.08 µM.

Q: What about the TGI (SF-539 CNS) of the same compound?
A: The TGI was over 58.3 µM.

Q: What about the GI50 (CAKI-1 renal) of the same compound?
A: Its GI50 is 3.41 µM.

Q: And the TGI (CAKI-1 renal)?
A: The TGI was 15.1 µM.

Q: And the GI50 (EKVX NSCLC)?
A: The GI50 was 5.72 µM.

Q: And the TGI (EKVX NSCLC)?
A: The TGI was over 69.8 µM.

Q: And the GI50 (SF-295 CNS)?
A: Its GI50 is 18.2 µM.

Q: What about the TGI (SF-295 CNS) of the same compound?
A: Its TGI is over 100 µM.

Q: What about the GI50 (MOLT-4 leukemia) of the same compound?
A: The GI50 was 2.68 µM.

Q: What about the TGI (MOLT-4 leukemia) of the same compound?
A: Its TGI is 8.5 µM.

Q: What about the GI50 (M14 melanoma) of the same compound?
A: Its GI50 is 4.75 µM.

Q: What about the TGI (M14 melanoma) of the same compound?
A: Its TGI is 41 µM.

Q: And the GI50 (SW-620 colon)?
A: The GI50 was 3.27 µM.

Q: What about the TGI (SW-620 colon) of the same compound?
A: Its TGI is over 23.1 µM.

Q: What about the GI50 (HOP-62 NSCLC) of the same compound?
A: Its GI50 is 12.8 µM.

Q: And the TGI (HOP-62 NSCLC)?
A: Its TGI is over 100 µM.

Q: And the GI50 (COLO 205 colon)?
A: Its GI50 is 12 µM.

Q: What about the TGI (COLO 205 colon) of the same compound?
A: Its TGI is over 100 µM.

Q: And the GI50 (HOP-92 NSCLC)?
A: Its GI50 is 2 µM.

Q: And the TGI (HOP-92 NSCLC)?
A: Its TGI is 18.9 µM.

Q: And the GI50 (MDA-MB-468 breast)?
A: The GI50 was 2.01 µM.

Q: What about the TGI (MDA-MB-468 breast) of the same compound?
A: Its TGI is 7.39 µM.

Q: And the GI50 (SK-OV-3 ovarian)?
A: The GI50 was 2.4 µM.

Q: What about the TGI (SK-OV-3 ovarian) of the same compound?
A: Its TGI is 8.99 µM.

Q: What about the GI50 (OVCAR-8 ovarian) of the same compound?
A: Its GI50 is 17.8 µM.

Q: What about the TGI (OVCAR-8 ovarian) of the same compound?
A: The TGI was over 100 µM.

Q: What about the GI50 (NCI-H23 lung) of the same compound?
A: The GI50 was 4.13 µM.

Q: And the TGI (NCI-H23 lung)?
A: The TGI was 28.9 µM.

Q: What about the GI50 (HT29 colon) of the same compound?
A: The GI50 was 12 µM.

Q: What about the TGI (HT29 colon) of the same compound?
A: Its TGI is over 100 µM.

Q: And the GI50 (TK-10 renal)?
A: Its GI50 is 7.97 µM.

Q: And the TGI (TK-10 renal)?
A: Its TGI is 70.3 µM.

Q: And the GI50 (HCT-15 colon)?
A: The GI50 was 5.39 µM.

Q: What about the TGI (HCT-15 colon) of the same compound?
A: Its TGI is over 100 µM.

Q: What about the GI50 (UO-31 renal) of the same compound?
A: The GI50 was 9.39 µM.

Q: What about the TGI (UO-31 renal) of the same compound?
A: Its TGI is over 100 µM.

Q: And the GI50 (BT-549 breast)?
A: The GI50 was 0.385 µM.

Q: And the TGI (BT-549 breast)?
A: Its TGI is 5.45 µM.

Q: What about the GI50 (RPMI-8226 leukemia) of the same compound?
A: The GI50 was 1.87 µM.

Q: What about the TGI (RPMI-8226 leukemia) of the same compound?
A: The TGI was 7.59 µM.

Q: And the GI50 (NCI-H460 NSCLC)?
A: Its GI50 is 4.62 µM.

Q: What about the TGI (NCI-H460 NSCLC) of the same compound?
A: The TGI was over 96.2 µM.

Q: What about the GI50 (CCRF-CEM leukemia) of the same compound?
A: The GI50 was 5.68 µM.

Q: And the TGI (CCRF-CEM leukemia)?
A: The TGI was over 52.5 µM.

Q: What about the GI50 (IGROV1 ovarian) of the same compound?
A: Its GI50 is 4.19 µM.

Q: What about the TGI (IGROV1 ovarian) of the same compound?
A: Its TGI is 36.8 µM.

Q: And the GI50 (NCI-H322M lung)?
A: Its GI50 is 3.89 µM.

Q: And the TGI (NCI-H322M lung)?
A: The TGI was 36.8 µM.

Q: And the GI50 (OVCAR-5 ovarian)?
A: Its GI50 is 10.3 µM.

Q: What about the TGI (OVCAR-5 ovarian) of the same compound?
A: Its TGI is over 79.5 µM.

Q: And the GI50 (OVCAR-3 ovarian)?
A: The GI50 was 5.38 µM.

Q: What about the TGI (OVCAR-3 ovarian) of the same compound?
A: Its TGI is over 75.2 µM.

Q: What about the GI50 (HL-60(TB) leukemia) of the same compound?
A: Its GI50 is 7.53 µM.

Q: What about the TGI (HL-60(TB) leukemia) of the same compound?
A: The TGI was 21.8 µM.

Q: What about the GI50 (MDA-MB-435 melanoma) of the same compound?
A: The GI50 was 11.8 µM.

Q: What about the TGI (MDA-MB-435 melanoma) of the same compound?
A: The TGI was 72.2 µM.

Q: What about the GI50 (NCI-H226 lung) of the same compound?
A: The GI50 was 1.26 µM.

Q: What about the TGI (NCI-H226 lung) of the same compound?
A: The TGI was 21.7 µM.

Q: What about the GI50 (SR leukemia) of the same compound?
A: Its GI50 is 3.97 µM.

Q: What about the TGI (SR leukemia) of the same compound?
A: The TGI was 12.9 µM.

Q: And the GI50 (RXF 393 renal)?
A: The GI50 was 1.19 µM.

Q: What about the TGI (RXF 393 renal) of the same compound?
A: Its TGI is 8.32 µM.
